Measured values taken from ChEMBL document CHEMBL1201862, “PubChem BioAssay data set” (2004).
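Assay format: 96-well plates, 48-hour exposure. At the GI50, growth is halved.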 Calls of active or inactive are those of the source. No stated cut-off is given here; in the data, active = GI50 up to about 1.1 µM and inactive = higher.

Assays:
Test in all cases: DTP human tumour cell line panel, 48 h
NCI-H23 = test system: NCI-H23
OVCAR-3 = test system: OVCAR-3
SW-620 = test system: SW-620
A498 = test system: A498
NCI/ADR-RES = test system: NCI/ADR-RES
KM12 = test system: KM12
RPMI-8226 = test system: RPMI-8226
CAKI-1 = test system: CAKI-1
SNB-75 = test system: SNB-75
T47D = test system: T47D
COLO 205 = test system: COLO 205
UACC-62 = test system: UACC-62
SF-539 = test system: SF-539
OVCAR-8 = test system: OVCAR-8
SNB-19 = test system: SNB-19
NCI-H226 = test system: NCI-H226
786-0 = test system: 786-0
Hs-578T = test system: Hs-578T
SF-295 = test system: SF-295
HCT-116 = test system: HCT-116
SN12C = test system: SN12C
NCI-H460 = test system: NCI-H460
BT-549 = test system: BT-549
HOP-62 = test system: HOP-62
MCF7 = test system: MCF7
SK-MEL-5 = test system: SK-MEL-5
HOP-92 = test system: HOP-92
SK-OV-3 = test system: SK-OV-3
HT-29 = test system: HT-29
TK-10 = test system: TK-10
OVCAR-4 = test system: OVCAR-4
A549 = test system: A549
U-251 = test system: U-251
SK-MEL-2 = test system: SK-MEL-2
SF-268 = test system: SF-268
IGROV-1 = test system: IGROV-1
K562 = test system: K562
UACC-257 = test system: UACC-257
SR = test system: SR
UO-31 = test system: UO-31
CCRF-CEM = test system: CCRF-CEM
MOLT-4 = test system: MOLT-4
HCT-15 = test system: HCT-15
LOX IMVI = test system: LOX IMVI
MDA-MB-435 = test system: MDA-MB-435
DU-145 = test system: DU-145
EKVX = test system: EKVX
M14 = test system: M14
HL-60 = test system: HL-60
MDA-N = test system: MDA-N
SK-MEL-28 = test system: SK-MEL-28
PC-3 = test system: PC-3
HCC 2998 = test system: HCC 2998
ACHN = test system: ACHN
RXF 393 = test system: RXF 393
NCI-H522 = test system: NCI-H522
MDA-MB-231 = test system: MDA-MB-231
OVCAR-5 = test system: OVCAR-5
Malme-3M = test system: Malme-3M

Measured: GI50

CC(=O)Nc1ccc(NS(=O)(=O)c2ccc3nc(C)n(NS(=O)(=O)c4ccc(NC(C)=O)cc4)c(=O)c3c2)cc1
> 100 µM: HCT-15
inactive: NCI-H23 > 100 µM | OVCAR-3 > 100 µM | SW-620 > 100 µM | A498 > 100 µM | NCI/ADR-RES > 100 µM | KM12 > 100 µM | RPMI-8226 > 100 µM | CAKI-1 > 100 µM | SNB-75 > 100 µM | T47D > 100 µM | COLO 205 > 100 µM | UACC-62 > 100 µM | SF-539 > 100 µM | OVCAR-8 > 100 µM | SNB-19 > 100 µM | NCI-H226 > 100 µM | 786-0 > 100 µM | Hs-578T > 100 µM | SF-295 > 100 µM | HCT-116 > 100 µM | SN12C > 100 µM | NCI-H460 > 100 µM | BT-549 > 100 µM | HOP-62 > 100 µM | MCF7 > 100 µM | SK-MEL-5 > 100 µM | HOP-92 > 100 µM | SK-OV-3 > 100 µM | HT-29 > 100 µM | TK-10 > 100 µM | OVCAR-4 > 100 µM | A549 > 100 µM | U-251 > 100 µM | SK-MEL-2 > 100 µM | SF-268 > 100 µM | IGROV-1 > 100 µM | K562 > 100 µM | UACC-257 > 100 µM | SR > 100 µM | UO-31 > 100 µM | CCRF-CEM > 100 µM | MOLT-4 > 100 µM | LOX IMVI > 100 µM | MDA-MB-435 > 100 µM | DU-145 > 100 µM | EKVX > 100 µM | M14 > 100 µM | HL-60 > 100 µM | MDA-N > 100 µM | SK-MEL-28 > 100 µM | PC-3 > 100 µM | HCC 2998 > 100 µM | ACHN > 100 µM | RXF 393 > 100 µM | NCI-H522 > 60.7 µM | MDA-MB-231 > 100 µM | OVCAR-5 > 100 µM

CCn1c(=O)c2c3cc(OC(C)=O)ccc3oc2c2ccc(OC(C)=O)cc21
inactive: NCI-H23 37.9 µM | OVCAR-3 39.8 µM | SW-620 38.4 µM | A498 24.8 µM | NCI/ADR-RES 36.9 µM | KM12 40.1 µM | CAKI-1 40 µM | SNB-75 2.69 µM | T47D 20.2 µM | COLO 205 20.7 µM | UACC-62 21.7 µM | SF-539 27.5 µM | OVCAR-8 30.8 µM | SNB-19 46.9 µM | NCI-H226 34.4 µM | 786-0 56.1 µM | Hs-578T 11.1 µM | SF-295 19.8 µM | Malme-3M 39.4 µM | HCT-116 32.2 µM | SN12C 43.6 µM | NCI-H460 21.8 µM | BT-549 30.5 µM | HOP-62 37.9 µM | MCF7 35 µM | SK-MEL-5 33 µM | HOP-92 23.4 µM | SK-OV-3 75.9 µM | HT-29 37.3 µM | TK-10 29.5 µM | OVCAR-4 36.9 µM | A549 43.9 µM | U-251 32.6 µM | SF-268 31.9 µM | IGROV-1 38.9 µM | K562 33.8 µM | UACC-257 55.1 µM | SR 36.3 µM | UO-31 26.6 µM | CCRF-CEM 17.2 µM | MOLT-4 23.6 µM | MDA-MB-435 31.1 µM | DU-145 36.1 µM | EKVX 21 µM | M14 45.9 µM | MDA-N 33.3 µM | SK-MEL-28 49 µM | PC-3 33 µM | HCC 2998 23.4 µM | ACHN 24.8 µM | RXF 393 37.2 µM | NCI-H522 39.1 µM | MDA-MB-231 48.4 µM
39.1 µM: HCT-15

COc1cc(-c2cc(-c3ccccc3)nc(-c3c(OC)ccc4c(C)cc(=O)oc34)c2)cc(OC)c1OC
> 100 µM: HCT-15
inactive: NCI-H23 > 100 µM | OVCAR-3 > 100 µM | SW-620 > 100 µM | A498 > 100 µM | NCI/ADR-RES > 100 µM | KM12 > 100 µM | CAKI-1 > 100 µM | SNB-75 > 100 µM | T47D > 100 µM | COLO 205 > 100 µM | UACC-62 > 100 µM | SF-539 > 100 µM | OVCAR-8 > 100 µM | SNB-19 > 100 µM | NCI-H226 > 100 µM | 786-0 > 100 µM | Hs-578T > 100 µM | SF-295 > 100 µM | Malme-3M > 100 µM | HCT-116 > 100 µM | SN12C > 100 µM | NCI-H460 > 100 µM | BT-549 > 100 µM | HOP-62 > 100 µM | MCF7 74.1 µM | SK-MEL-5 > 100 µM | HOP-92 > 100 µM | SK-OV-3 > 100 µM | HT-29 > 100 µM | TK-10 > 100 µM | OVCAR-4 > 100 µM | A549 > 100 µM | U-251 > 100 µM | SK-MEL-2 > 100 µM | SF-268 > 100 µM | IGROV-1 > 100 µM | K562 > 100 µM | UACC-257 > 100 µM | SR > 100 µM | UO-31 > 100 µM | CCRF-CEM > 100 µM | MOLT-4 > 100 µM | LOX IMVI > 100 µM | MDA-MB-435 > 100 µM | DU-145 > 100 µM | EKVX > 100 µM | M14 > 100 µM | HL-60 13.6 µM | MDA-N > 100 µM | PC-3 > 100 µM | HCC 2998 > 100 µM | ACHN > 100 µM | RXF 393 > 100 µM | NCI-H522 > 100 µM | MDA-MB-231 > 100 µM
